Results as given in publication PMC10812557, “Progressive Design of a Ranatuerin-2 Peptide from Amolops wuyiensis: Enhancement of Bioactivity and In Vivo Efficacy” (Antibiotics, 2023).
Bridge positions count the residues as written; N and C are the ends. Peptide text beside a SMILES is read from it.

Tests used:
[1] = system: P. aeruginosa (ATCC 9027); assay type: cell-based, Pseudomonas aeruginosa
Method: (§1) As a previous study described in detail, the ability of R2AW and its analogues to inhibit and eradicate the formation of biofilm was investigated. The MBIC is the lowest concentration which inhibits the formation of biofilm. The MBEC is the minimum concentration that eradicates biofilm. Six bacterial strains were used, as described above. Briefly, the bacteria were cultured and then diluted to 5 × 10^5 CFU/mL. In MBIC assays, 1 μL of each concentration of R2AW and its analogues (ranging from 512 × 10^2 μM to 100 μM) was mixed with 99 μL of diluted bacterial suspension in a 96-well plate for 16-20 h at 37 °C. As for MBEC assays, 100 μL of cultured bacteria were seeded in a 96-well plate and incubated on the shaking incubator at 37 °C overnight for biofilm formation. Subsequently, each well was rinsed twice with 100 μL sterile PBS to remove planktonic cells, and then replaced with 100 μL of each concentration (ranging from 512 μM to 1 μM) of peptides. After 24 h incubation, the biofilm was washed twice with 100 μL of PBS and fixed with methanol. Next, the same volume of 0.1% crystal violet solution (Sigma-Aldrich, Gillingham, UK) was added to each well to stain the biofilm. After that, 100 μL of 30% of acetic acid (Sigma-Aldrich, Gillingham, UK) was transferred to each well for dissolution. The solutions were transferred into a new 96-well plate and the absorbances of wells was monitored using a Synergy HT plate reader set to 595 nm.

S. aureus (NCTC 10788) [2] = assay type: cell-based, Staphylococcus aureus
Method: as §1

E. coli (ATCC 8739) [3] = assay type: cell-based, Escherichia coli
Method: as §1

HCT116 = assay type: cell-based, human; conditions: 24 h
Method: (§2) Five human cancer cell lines of non-small-cell lung cancer H838, human prostate carcinoma PC-3, human neuronal glioblastoma U251MG, human breast cancer cell MCF-7, and colorectal carcinoma HCT116 were used to detect the antiproliferative abilities of R2AW and its five analogues. According to the procedures in a previous article, cells (8000 cells/well) were seeded into the 96-well tissue culture plates and incubated at 37 °C with 5% CO2 overnight. The solutions of R2AW and its analogues at concentrations of 10^−4 M to 10^−9 M were prepared in the serum-free medium. Next, cells in each well were treated with 100 μL of each peptide solution for 24 h. Subsequently, 10 μL of 5 mg/mL MTT (3-(4, 5-Dimethylthiazol-2-yl-)-2, 5-Diphehyltetrazolium Bromide) was added to each well followed by 37 °C incubation for 2 h. After that, the liquid in each well was removed and 100 μL of DMSO was added to dissolve the purple formazan. The plate was placed on a shaking incubator for 10 min, and the absorbance was detected at 550 nm using a Synergy HT plate reader (Biotech, Minneapolis, MN, USA).

U251MG = assay type: cell-based, human; conditions: 24 h
Method: as §2

PC-3 = assay type: cell-based, human; conditions: 24 h
Method: as §2

H838 = assay type: cell-based, human; conditions: 24 h
Method: as §2

MCF-7 = assay type: cell-based, human; conditions: 24 h
Method: as §2

E. faecium (NTCC 12697) [4] = assay type: cell-based
Method: as §1

[5] = system: K. pneumoniae (ATCC 43816); assay type: cell-based, Klebsiella pneumoniae
Method: as §1

[6] = system: P. aeruginosa (ATCC 9027); assay type: cell-based; conditions: ATCC 9027, 18 h
Source text: (§3) The MIC and MBC assays were used to assess the inhibitory activities of all 5 analogues of R2AW on the growth of planktonic microorganisms. The MIC is the lowest concentration that prevents the viable growth of bacteria. The MBC is the lowest concentration that results in bacterial death. Six microorganisms were used to detect the antimicrobial activity of peptides, including Gram-positive bacteria S. aureus (NCTC 10788), MRSA (NCTC 12493), Enterococcus faecalis (E. faecalis) (NCTC 12697), Gram-negative bacteria E. coli […], Klebsiella pneumoniae (K. pneumoniae) (ATCC 43816), and Pseudomonas aeruginosa (P. aeruginosa) (ATCC 9027). According to the assay described previously, the microorganisms were inoculated at 37 °C overnight and diluted to 5 × 10^5 CFU/mL after reaching the logarithmic growth period. The peptide stock solution at the concentration of 512 × 10^2 μM was prepared and diluted to 100 μM by a 2-fold dilution. One μL of each concentration of peptide solution was incubated with 99 μL of bacterial subculture in the 96-well plate for 18 h at 37 °C. The absorbance was determined at a wavelength of 550 nm using a Synergy HT plate reader (Bio Tek, Washington, DC, USA). […] As for those wells that were clearly visible, 20 μL of the solution was dropped onto the Mueller Hinton agar (MHA) dish and then incubated at 37 °C overnight. The lowest concentration with no colony growth was determined as the MBC.

E. coli (ATCC 8739) [7] = assay type: cell-based; conditions: ATCC 8739, 18 h
Source text: as §3

[8] = system: K. pneumoniae (ATCC 43816); assay type: cell-based; conditions: ATCC 43816, 18 h
Source text: as §3

S. aureus (NCTC 10788) [9] = assay: microbe, parasite or virus in culture; assay type: cell-based; conditions: NCTC 10788, 18 h
Source text: as §3

E. faecium (NTCC 12697) [10] = assay: microbe, parasite or virus in culture; assay type: cell-based; conditions: NTCC 12697, 18 h
Source text: as §3

MRSA (NCTC 12493) [11] = assay: microbe, parasite or virus in culture; assay type: cell-based; conditions: MRSA (NCTC 12493)
Source text: as §3

MRSA (NCTC 12493) [12] = assay type: cell-based, methicillin-resistant Staphylococcus aureus; conditions: NCTC 12493
Method: as §1

[13] = system: five human cancer cell lines; assay type: cell-based; conditions: 24 h
Method: as §2

CSCC[C@H](NC(=O)[C@H](Cc1ccccc1)NC(=O)CN)C(=O)N[C@@H](CC(=O)O)C(=O)N[C@H](C(=O)N[C@@H](C)C(=O)N[C@@H](CCCCN)C(=O)N[C@@H](CC(N)=O)C(=O)N[C@H](C(=O)N[C@@H](C)C(=O)N[C@@H](CCCCN)C(=O)N[C@@H](CC(N)=O)C(=O)N[C@H](C(=O)N[C@@H](C)C(=O)N[C@@H](C)C(=O)N[C@H](C(=O)N[C@@H](CC(C)C)C(=O)N[C@@H](CC(C)C)C(=O)N[C@@H](CC(=O)O)C(=O)N[C@@H](CCCCN)C(=O)N[C@@H](CC(C)C)C(=O)N[C@@H](CCCCN)C(N)=O)[C@@H](C)O)C(C)C)C(C)C)[C@@H](C)O [R2AW(1-22)-NH2] (H-GFMDTAKNVAKNVAATLLDKLK-NH2)
MBEC [1]: >512 µM | MBIC [1]: >512 µM | MBEC (S. aureus (NCTC 10788) [2]): > 512 µM | MBIC (S. aureus (NCTC 10788) [2]): 128 µM | MBEC (E. coli (ATCC 8739) [3]): 512 µM | MBIC (E. coli (ATCC 8739) [3]): 256 µM | IC50 (HCT116): 609 µM | IC50 (U251MG): 516 µM | IC50 (PC-3): 194 µM | IC50 (H838): 58.9 µM | IC50 (MCF-7): 374 µM | MBEC (E. faecium (NTCC 12697) [4]): >512 µM | MBIC (E. faecium (NTCC 12697) [4]): >512 µM | MBEC [5]: 512/>512 µM | MBIC [5]: 512/>512 µM | MBC [6]: > 1202 µg/mL | MIC [6]: 1202 µg/mL | MBC (E. coli (ATCC 8739) [7]): 301 µg/mL | MIC (E. coli (ATCC 8739) [7]): 300 µg/mL | MBC [8]: 601 µg/mL | MIC [8]: 601 µg/mL | MBC (S. aureus (NCTC 10788) [9]): 150 µg/mL | MIC (S. aureus (NCTC 10788) [9]): 150 µg/mL | MBC (E. faecium (NTCC 12697) [10]): 601 µg/mL | MIC (E. faecium (NTCC 12697) [10]): 601 µg/mL | MBC (MRSA (NCTC 12493) [11]): 601 µg/mL | MIC (MRSA (NCTC 12493) [11]): 601 µg/mL

CC[C@H](C)[C@@H]1NC(=O)[C@H](CCCCN)NC(=O)[C@@H](NC(=O)[C@H](CCCCN)NC(=O)[C@H](CC(C)C)NC(=O)[C@H](CCCCN)NC(=O)[C@H](CC(=O)O)NC(=O)[C@H](CC(C)C)NC(=O)[C@H](CC(C)C)NC(=O)[C@@H](NC(=O)[C@H](C)NC(=O)[C@H](C)NC(=O)[C@@H](NC(=O)[C@H](CC(N)=O)NC(=O)[C@H](CCCCN)NC(=O)[C@H](C)NC(=O)[C@@H](NC(=O)[C@H](CC(N)=O)NC(=O)[C@H](CCCCN)NC(=O)[C@H](C)NC(=O)[C@@H](NC(=O)[C@H](CC(=O)O)NC(=O)[C@H](CCSC)NC(=O)[C@H](Cc2ccccc2)NC(=O)CN)[C@@H](C)O)C(C)C)C(C)C)[C@@H](C)O)CSSC[C@@H](C(=O)O)NC(=O)CNC(=O)CNC(=O)[C@H]([C@@H](C)O)NC1=O [R2AW] (H-GFMDTAKNVAKNVAATLLDKLKCKITGGC-OH; disulfide 23-29)
MBEC [1]: >512 µM | MBIC [1]: >512 µM | MBEC (S. aureus (NCTC 10788) [2]): > 512 µM | MBIC (S. aureus (NCTC 10788) [2]): 128 µM | MBEC (MRSA (NCTC 12493) [12]): > 512 µM | MBIC (MRSA (NCTC 12493) [12]): 256 µM | MBEC (E. coli (ATCC 8739) [3]): 512 µM | MBIC (E. coli (ATCC 8739) [3]): 128 µM | IC50 (HCT116): 10.8 µM | IC50 (U251MG): 30.8 µM | IC50 (PC-3): 5.09 µM | IC50 (H838): 10.8 µM | IC50 (MCF-7): 33.2 µM | IC50 [13]: 5.09 to 33.2 µM | MBEC (E. faecium (NTCC 12697) [4]): >512 µM | MBIC (E. faecium (NTCC 12697) [4]): >512 µM | MBEC [5]: 512/>512 µM | MBIC [5]: 512/>512 µM | MBC [6]: 1541 µg/mL | MIC [6]: 385 µg/mL | MBC (E. coli (ATCC 8739) [7]): 193 µg/mL | MIC (E. coli (ATCC 8739) [7]): 32 µM | MBC [8]: 771 µg/mL | MIC [8]: 385 µg/mL | MBC (S. aureus (NCTC 10788) [9]): 193 µg/mL | MIC (S. aureus (NCTC 10788) [9]): 32 µM | MBC (E. faecium (NTCC 12697) [10]): 771 µg/mL | MIC (E. faecium (NTCC 12697) [10]): 770 µg/mL | MBC (MRSA (NCTC 12493) [11]): 1541 µg/mL | MIC (MRSA (NCTC 12493) [11]): 770 µg/mL
